Measurements reported in patent US12612368B2 (Remedy Plan, Inc., priority 2019, dated 2026).
Read-outs that look alike come from different tables or passages of the source.

Columns and labels:
NAMPT = biological target: T1, NAMPT (Homo sapiens, UniProt P43490); assay: NAMPT Activity Assay (Abcam #ab221819); format: biochemical; conditions: purified NAMPT, two-step reaction, OD450 nm; percent inhibition vs no drug; compound concentration not stated
T1 construct: purchased Abcam ab221819

MV-4-11 cells = assay: Cell viability in MV-4-11 cells (CellTiter Glo2); format: cell-based; conditions: Homo sapiens, MV4-11, 96 h, 8-point dose response, 4 days
Protocol: Approximately 10,000 MV-4-11 cells per well of a 96-well plate were treated with DMSO (no drug control) or each compound in Tables E1 and E2 in an 8-point dose response for 4 days, Cell viability was measured using CellTiter Glo2. The ICse of each compound was determined using CDD Vault.

[1] = CellTiter Glo2 (Table E1), read-out: MV-4-11 IC50
[2] = CellTiter Glo2 (Table E2), read-out: MV-4-11 Cell Viability, MV-4-11 IC50

T1 sequence (P43490 whole entry): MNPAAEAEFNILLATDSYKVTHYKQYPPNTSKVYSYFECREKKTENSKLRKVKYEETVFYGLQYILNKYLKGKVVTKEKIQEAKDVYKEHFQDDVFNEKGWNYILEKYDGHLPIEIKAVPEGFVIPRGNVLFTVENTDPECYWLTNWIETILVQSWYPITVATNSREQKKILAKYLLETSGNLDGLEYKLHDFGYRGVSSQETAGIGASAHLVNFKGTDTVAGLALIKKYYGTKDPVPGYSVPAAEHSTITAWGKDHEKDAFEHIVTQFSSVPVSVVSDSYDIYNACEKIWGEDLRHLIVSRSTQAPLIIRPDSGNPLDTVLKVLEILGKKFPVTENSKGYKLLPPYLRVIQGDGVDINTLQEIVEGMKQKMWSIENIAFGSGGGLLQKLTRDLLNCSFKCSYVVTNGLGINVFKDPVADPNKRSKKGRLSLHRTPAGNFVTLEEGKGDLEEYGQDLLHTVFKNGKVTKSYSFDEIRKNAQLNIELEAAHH

NAMPT Inhibition Code (NAMPT) | IC50 (MV-4-11 cells; [1]) [nM] | IC50 (MV-4-11 cells; [2]) [nM] | SMILES
A (A = <33% inhibition) | 2170 | – | CCCN(C(C)=O)c1ccc(-c2ccc(C(=O)NCc3cccnc3C)cn2)cc1C [Compound I-446, 6-[4-[acetyl(propyl)amino]-3-methyl-phenyl]-N-[(2-methyl-3-pyridyl)methyl]pyridine-3-carboxamide]
C (C = ≥66% inhibition) | – | 2.91 | CC(=O)N(CC1CC1)c1ccc(-c2ccc(C(=O)NCc3ccc(N)nc3)cn2)cc1Cl [Compound I-677, 6-[4-[Acetyl(cyclopropylmethyl)amino]-3-chloro-phenyl]-N-[(6-amino-3-pyridyl)methyl]pyridine-3-carboxamide]
A (A = <33% inhibition) | – | > 15800 | CCC(=O)N(C)c1ccc(-c2ccc(C(=O)N(C)Cc3cccnc3)cn2)cc1C [Compound I-496, N-methyl-6-[3-methyl-4-[methyl(propanoyl)amino]phenyl]-N-(3-pyridylmethyl)pyridine-3-carboxamide]
B (B = ≥33 to <66% inhibition) | – | 220 | CC(=O)N(CC(F)F)c1ccc(-c2ccc(C(=O)NCc3cccnc3)cn2)cc1C [Compound I-608, 6-[4-[Acetyl(2,2-difluoroethyl)amino]-3-methyl-phenyl]-N-(3-pyridylmethyl)pyridine-3-carboxamide]
B (B = ≥33 to <66% inhibition) | 119 | – | CCCN(C(=O)CC)c1ccc(-c2ccc(C(=O)NCc3cccnc3)cn2)cc1 [Compound I-410, 6-[4-[propanoyl(propyl)amino]phenyl]-N-(3-pyridylmethyl)pyridine-3-carboxamide]
C (C = ≥66% inhibition) | – | 3.28 | CC(=O)N(CC(C)C)c1ccc(-c2ccc(C(=O)NCc3cccnc3)cn2)cc1Cl [Compound I-599, 6-[4-[Acetyl(isobutyl)amino]-3-chloro-phenyl]-N-(3-pyridylmethyl)pyridine-3-carboxamide]
A (A = <33% inhibition) | – | 9850 | COC(=O)c1cc(-c2ccc(C(=O)NCc3cccnc3C)cn2)ccc1N(C)C(C)=O [Compound I-457, methyl 2-[acetyl(methyl)amino]-5-[5-[(2-methyl-3-pyridyl)methylcarbamoyl]-2-pyridyl]benzoate]
C (C = ≥66% inhibition) | 58.7 | – | CC(=O)N(CC(C)C)c1ccc(-c2ccc(C(=O)NCc3cccnc3)cc2)cc1 [Compound I-402, 4-[4-[acetyl(isobutyl)amino]phenyl]-N-(3-pyridylmethyl)benzamide]
B (B = ≥33 to <66% inhibition) | 125 | – | CCCCN(C(C)=O)c1ccc(-c2ccc(C(=O)NCc3cccnc3)cn2)cc1 [Compound I-411, 6-[4-[acetyl(butyl)amino]phenyl]-N-(3-pyridylmethyl)pyridine-3-carboxamide]
B (B = ≥33 to <66% inhibition) | – | 40 | CC(=O)N(c1ccc(-c2ccc(C(=O)NCc3cccnc3)cc2)cc1C)C(C)C [Compound I-624, 4-[4-[Acetyl(isopropyl)amino]-3-methyl-phenyl]-N-(3-pyridylmethyl)benzamide]
B (B = ≥33 to <66% inhibition) | – | 150 | CC(=O)N(C)c1ccc(-c2ccc(C(=O)NCc3cccnc3)cn2)cc1C(F)(F)F [Compound I-658, 6-[4-[Acetyl(methyl)amino]-3-(trifluoromethyl)phenyl]-N-(3-pyridylmethyl)pyridine-3-carboxamide]
A (A = <33% inhibition) | 105 | – | CCC(=O)N(CCNC(=O)OC(C)(C)C)c1ccc(-c2ccc(C(=O)NCc3cccnc3)cc2)cc1 [Compound I-417, tert-butyl N-[2-[N-propanoyl-4-[4-(3-pyridylmethylcarbamoyl)phenyl]anilino]ethyl]carbamate]
A (A = <33% inhibition) | 3690 | – | CCc1cc(-c2ccc(C(=O)NCc3cccnc3C)cn2)ccc1N(C)C(C)=O [Compound I-445, 6-[4-[acetyl(methyl)amino]-3-ethyl-phenyl]-N-[(2-methyl-3-pyridyl)methyl]pyridine-3-carboxamide]
A (A = <33% inhibition) | 6230 | – | CCC(=O)N(C)c1ccc(-c2ccc(C(=O)NCc3cccnc3C)cn2)cc1 [Compound I-392, 6-[4-[methyl(propanoyl)amino]phenyl]-N-[(2-methyl-3-pyridyl)methyl]pyridine-3-carboxamide]
C (C = ≥66% inhibition) | – | < 5.89 | CC(=O)N(CC1CC(F)(F)C1)c1ccc(-c2ccc(C(=O)NCc3cccnc3)cn2)cc1Cl [Compound I-603, 6-[4-[Acetyl-[(3,3-difluorocyclobutyl)methyl]amino]-3-chloro-phenyl]-N-(3-pyridylmethyl)pyridine-3-carboxamide]
A (A = <33% inhibition) | – | > 30000 | CC(=O)Nc1ccc(-c2ccc(C(=O)N(C)Cc3cccnc3C)cn2)cc1C#N [Compound I-483, 6-(4-Acetamido-3-cyano-phenyl)-N-methyl-N-[(2-methyl-3-pyridyl)methyl]pyridine-3-carboxamide]

NAMPT Inhibition Code (NAMPT) | IC50 (MV-4-11 cells; [1]) [nM] | IC50 (MV-4-11 cells; [2]) [nM] | SMILES
B (B = ≥33 to <66% inhibition) | 817 | – | CC(C)CN(CC(C)C)c1ccc(-c2ccc(C(=O)NCc3cccnc3)cc2)cc1 [Compound I-406, 4-[4-(diisobutylamino)phenyl]-N-(3-pyridylmethyl)benzamide]
A (A = <33% inhibition) | – | 3990 | CC(=O)N(CCC(F)(F)F)c1ccc(-c2ccc(C(=O)NCc3cccnc3C)cn2)cc1 [Compound I-499, 6-[4-[Acetyl(3,3,3-trifluoropropyl)amino]phenyl]-N-[(2-methyl-3-pyridyl)methyl]pyridine-3-carboxamide]
A (A = <33% inhibition) | – | 436 | CCC(=O)N(C)c1ccc(-c2ccc(C(=O)NCc3cccnc3)cn2)cc1 [Compound I-331, 6-[4-[Methyl(propanoyl)amino]phenyl]-N-(3-pyridylmethyl)pyridine-3-carboxamide]
A (A = <33% inhibition) | 6110 | – | CCC(=O)N(C)c1ccc(-c2ccc(C(=O)NCc3cccnc3Cl)cn2)cc1 [Compound I-395, N-[(2-chloro-3-pyridyl)methyl]-6-[4-[methyl(propanoyl)amino]phenyl]pyridine-3-carboxamide]
A (A = <33% inhibition) | 691 | – | CC(=O)N(CCNC(=O)OC(C)(C)C)c1ccc(-c2ccc(C(=O)NCc3cccnc3)cn2)cc1 [Compound I-448, tert-butyl N-[2-[N-acetyl-4-[5-(3-pyridylmethylcarbamoyl)-2-pyridyl]anilino]ethyl]carbamate]
A (A = <33% inhibition) | 1670 | – | CC(=O)N(C)c1ccc(-c2ccc(C(=O)NCc3cccnc3)cn2)cc1C [Compound I-425, 6-[4-[acetyl(methyl)amino]-3-methyl-phenyl]-N-(3-pyridylmethyl)pyridine-3-carboxamide]
A (A = <33% inhibition) | – | 5910 | CC(=O)N(CC1COC1)c1ccc(-c2ccc(C(=O)NCc3cccnc3C)cn2)cc1C [Compound I-510, 6-[4-[Acetyl(oxetan-3-ylmethyl)amino]-3-methyl-phenyl]-N-[(2-methyl-3-pyridyl)methyl]pyridine-3-carboxamide]
B (B = ≥33 to <66% inhibition) | – | 5370 | CCC(=O)N(C)c1ccc(-c2ccc(C(=O)NCc3ccc(OC)nc3)cn2)cc1C [Compound I-451]
A (A = <33% inhibition) | – | 2220 | CC(=O)N(CC1CC1)c1ccc(-c2ccc(C(=O)NCc3ccc(C)nc3C)cn2)cc1C [Compound I-489, 6-[4-[Acetyl(cyclopropylmethyl)amino]-3-methyl-phenyl]-N-[(2,6-dimethyl-3-pyridyl)methyl]pyridine-3-carboxamide]
B (B = ≥33 to <66% inhibition) | 82.5 | – | CC(=O)N(CC1CC(F)(F)C1)c1ccc(-c2ccc(C(=O)NCc3cccnc3)cn2)cc1 [Compound I-412, 6-[4-[acetyl-[(3,3-difluorocyclobutyl)methyl]amino]phenyl]-N-(3-pyridylmethyl)pyridine-3-carboxamide]
B (B = ≥33 to <66% inhibition) | 13800 | – | CCC(=O)N(C)c1ccc(-c2ccc(C(=O)NCc3ccc(OC)nc3)cn2)cc1 [Compound I-397, N-[(6-methoxy-3-pyridyl)methyl]-6-[4-[methyl(propanoyl)amino]phenyl]pyridine-3-carboxamide]
A (A = <33% inhibition) | – | 1510 | CC(=O)N(CC(C)C)c1ccc(-c2ccc(C(=O)NCc3cccnc3C)cn2)cc1Cl [Compound I-459, 6-[4-[acetyl(isobutyl)amino]-3-chloro-phenyl]-N-[(2-methyl-3-pyridyl)methyl]pyridine-3-carboxamide]
A (A = <33% inhibition) | – | 2140 | CC(=O)N(CC(C)C)c1ccc(-c2ccc(C(=O)NCc3cccnc3C)cn2)cc1C [Compound I-454, 6-[4-[acetyl(isobutyl)amino]-3-methyl-phenyl]-N-[(2-methyl-3-pyridyl)methyl]pyridine-3-carboxamide]
C (C = ≥66% inhibition) | – | < 6.64 | CC(=O)N(CC(C)C)c1ccc(-c2ccc(C(=O)NCc3cccnc3)cn2)cc1C [Compound I-594, 6-[4-[Acetyl(isobutyl)amino]-3-methyl-phenyl]-N-(3-pyridylmethyl)pyridine-3-carboxamide]
B (B = ≥33 to <66% inhibition) | – | 1700 | CC(=O)N(C)c1ccc(-c2ccc(C(=O)NCc3cccnc3)cn2)cc1C#N [Compound I-663, 6-[4-[Acetyl(methyl)amino]-3-cyano-phenyl]-N-(3-pyridylmethyl)pyridine-3-carboxamide]
